Read-outs that look alike come from different tables or passages of the source.
How the values were obtained:
Test in all cases: Test A pre/postemergence
Type in all cases: in vivo
[1] = system: barnyardgrass (Echinochloa crus-galli); conditions: for pest or weed control at 125 g/ha / pest or weed control at 500 g/ha: Echinochloa crus-galli, 240 h, read-out: Plant response rating, Barnyardgrass
How it was run: (§1)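 Pre/post greenhouse screen; loam/sand soil; solvent + surfactant formulation; pre = directed soil spray at planting, post = 1–2 leaf plants, 2–10 cm; ~10 d; visual 0–100 rating vs untreated.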

[2] = system: velvetleaf (Abutilon theophrasti); conditions: for pest or weed control at 125 g/ha / pest or weed control at 500 g/ha: Abutilon theophrasti, 240 h, read-out: Plant response rating, Velvetleaf
How it was run: as §1

[3] = system: morningglory (Ipomoea spp.); conditions: for pest or weed control at 125 g/ha / pest or weed control at 500 g/ha: Ipomoea, 240 h, read-out: Plant response rating, Morningglory
How it was run: as §1

[4] = system: crabgrass (Digitaria sanguinalis); conditions: for pest or weed control at 125 g/ha / pest or weed control at 500 g/ha: Digitaria sanguinalis, 240 h, read-out: Plant response rating, Crabgrass
How it was run: as §1

[5] = system: giant foxtail (Setaria faberi); conditions: for pest or weed control at 125 g/ha / pest or weed control at 500 g/ha: Setaria faberi, 240 h, read-out: Plant response rating, Foxtail, Giant
How it was run: as §1

[6] = system: redroot pigweed (Amaranthus retroflexus); conditions: for pest or weed control at 125 g/ha / pest or weed control at 500 g/ha: Amaranthus retroflexus, 240 h, read-out: Plant response rating, Pigweed
How it was run: as §1

[7] = post-emergence, Postemergence, 125 g ai/ha, 0 to 100 scale (0 no effect, 100 complete control)
[8] = post-emergence, Postemergence, 500 g ai/ha, 0 to 100 scale (0 no effect, 100 complete control)
[9] = pre-emergence, Preemergence, 125 g ai/ha, 0 to 100 scale where 0 is no effect and 100 is complete control, approximately ten days
[10] = pre-emergence, Preemergence, 500 g ai/ha, 0 to 100 scale where 0 is no effect and 100 is complete control, approximately ten days
[11] = Postemergence, 125 g ai/ha, 0 to 100 scale (0 no effect, 100 complete control)
[12] = Postemergence, 500 g ai/ha, 0 to 100 scale (0 no effect, 100 complete control)
[13] = Preemergence, 125 g ai/ha, 0 to 100 scale where 0 is no effect and 100 is complete control, approximately ten days
[14] = Preemergence, 500 g ai/ha, 0 to 100 scale where 0 is no effect and 100 is complete control, approximately ten days

SMILES: NC(=O)c1nc(C2CC2)nc(N)c1Br [Compound 20]
- pest or weed control at 125 g/ha [1, 7]: 0%
- pest or weed control at 500 g/ha [1, 8]: 0%
- pest or weed control at 125 g/ha [1, 9]: 0%
- pest or weed control at 500 g/ha [1, 10]: 0%
- pest or weed control at 125 g/ha [2, 7]: 10%
- pest or weed control at 500 g/ha [2, 8]: 55%
- pest or weed control at 125 g/ha [2, 9]: 0%
- pest or weed control at 500 g/ha [2, 10]: 70%
- pest or weed control at 125 g/ha [3, 7]: 20%
- pest or weed control at 500 g/ha [3, 8]: 40%
- pest or weed control at 125 g/ha [3, 9]: 10%
- pest or weed control at 500 g/ha [3, 10]: 60%
- pest or weed control at 125 g/ha [4, 7]: 0%
- pest or weed control at 500 g/ha [4, 8]: 0%
- pest or weed control at 125 g/ha [4, 9]: 0%
- pest or weed control at 500 g/ha [4, 10]: 0%
- pest or weed control at 125 g/ha [5, 7]: 0%
- pest or weed control at 500 g/ha [5, 8]: 0%
- pest or weed control at 125 g/ha [5, 9]: 0%
- pest or weed control at 500 g/ha [5, 10]: 0%
- pest or weed control at 125 g/ha [6, 7]: 40%
- pest or weed control at 500 g/ha [6, 8]: 60%
- pest or weed control at 125 g/ha [6, 9]: 40%
- pest or weed control at 500 g/ha [6, 10]: 70%

SMILES: Nc1nc(C2CC2)nc(C(=O)OCCCOC(=O)c2nc(C3CC3)nc(N)c2Cl)c1Cl [Compound 142]
- Plant response rating, Barnyardgrass [1, 11]: 45
- Plant response rating, Barnyardgrass [1, 12]: 75
- Plant response rating, Barnyardgrass [1, 13]: 50
- Plant response rating, Barnyardgrass [1, 14]: 75
- Plant response rating, Velvetleaf [2, 11]: 80
- Plant response rating, Velvetleaf [2, 12]: 90
- Plant response rating, Velvetleaf [2, 13]: 85
- Plant response rating, Velvetleaf [2, 14]: 85
- Plant response rating, Morningglory [3, 11]: 90
- Plant response rating, Morningglory [3, 12]: 90
- Plant response rating, Morningglory [3, 13]: 85
- Plant response rating, Morningglory [3, 14]: 95
- Plant response rating, Crabgrass [4, 11]: 15
- Plant response rating, Crabgrass [4, 12]: 25
- Plant response rating, Crabgrass [4, 13]: 45
- Plant response rating, Crabgrass [4, 14]: 85
- Plant response rating, Foxtail, Giant [5, 11]: 30
- Plant response rating, Foxtail, Giant [5, 12]: 45
- Plant response rating, Foxtail, Giant [5, 13]: 25
- Plant response rating, Foxtail, Giant [5, 14]: 65
- Plant response rating, Pigweed [6, 11]: 85
- Plant response rating, Pigweed [6, 12]: 90
- Plant response rating, Pigweed [6, 13]: 70
- Plant response rating, Pigweed [6, 14]: 90

SMILES: Nc1nc(C2CC2)nc(C(=O)OCC2CO2)c1Cl (stereo not drawn) [Compound 140]
- Plant response rating, Barnyardgrass [1, 11]: 70
- Plant response rating, Barnyardgrass [1, 12]: 90
- Plant response rating, Barnyardgrass [1, 13]: 70
- Plant response rating, Barnyardgrass [1, 14]: 90
- Plant response rating, Velvetleaf [2, 11]: 90
- Plant response rating, Velvetleaf [2, 12]: 90
- Plant response rating, Velvetleaf [2, 13]: 90
- Plant response rating, Velvetleaf [2, 14]: 95
- Plant response rating, Morningglory [3, 11]: 85
- Plant response rating, Morningglory [3, 12]: 90
- Plant response rating, Morningglory [3, 13]: 90
- Plant response rating, Morningglory [3, 14]: 95
- Plant response rating, Crabgrass [4, 11]: 65
- Plant response rating, Crabgrass [4, 12]: 80
- Plant response rating, Crabgrass [4, 13]: 70
- Plant response rating, Crabgrass [4, 14]: 90
- Plant response rating, Foxtail, Giant [5, 11]: 85
- Plant response rating, Foxtail, Giant [5, 12]: 90
- Plant response rating, Foxtail, Giant [5, 13]: 40
- Plant response rating, Foxtail, Giant [5, 14]: 85
- Plant response rating, Pigweed [6, 11]: 90
- Plant response rating, Pigweed [6, 12]: 100
- Plant response rating, Pigweed [6, 13]: 90
- Plant response rating, Pigweed [6, 14]: 95

SMILES: CNC(=O)c1nc(C2CC2)nc(N)c1Cl [Compound 81]
- pest or weed control at 125 g/ha [1, 7]: 0%
- pest or weed control at 500 g/ha [1, 8]: 30%
- pest or weed control at 125 g/ha [1, 9]: 10%
- pest or weed control at 500 g/ha [1, 10]: 20%
- pest or weed control at 125 g/ha [2, 7]: 50%
- pest or weed control at 500 g/ha [2, 8]: 75%
- pest or weed control at 125 g/ha [2, 9]: 20%
- pest or weed control at 500 g/ha [2, 10]: 40%
- pest or weed control at 125 g/ha [3, 7]: 50%
- pest or weed control at 500 g/ha [3, 8]: 80%
- pest or weed control at 125 g/ha [3, 9]: 0%
- pest or weed control at 500 g/ha [3, 10]: 50%
- pest or weed control at 125 g/ha [4, 7]: 0%
- pest or weed control at 500 g/ha [4, 8]: 10%
- pest or weed control at 125 g/ha [4, 9]: 0%
- pest or weed control at 500 g/ha [4, 10]: 10%
- pest or weed control at 125 g/ha [5, 7]: 0%
- pest or weed control at 500 g/ha [5, 8]: 30%
- pest or weed control at 125 g/ha [5, 9]: 0%
- pest or weed control at 500 g/ha [5, 10]: 10%
- pest or weed control at 125 g/ha [6, 7]: 55%
- pest or weed control at 500 g/ha [6, 8]: 75%
- pest or weed control at 125 g/ha [6, 9]: 60%
- pest or weed control at 500 g/ha [6, 10]: 70%

SMILES: COC(=O)c1nc(-c2ccc(C)cc2)nc(N)c1Br [Compound 82]
- Plant response rating, Barnyardgrass [1, 11]: 40
- Plant response rating, Barnyardgrass [1, 12]: 50
- Plant response rating, Barnyardgrass [1, 13]: 0
- Plant response rating, Barnyardgrass [1, 14]: 15
- Plant response rating, Velvetleaf [2, 11]: 90
- Plant response rating, Velvetleaf [2, 12]: 90
- Plant response rating, Velvetleaf [2, 13]: 5
- Plant response rating, Velvetleaf [2, 14]: 35
- Plant response rating, Morningglory [3, 11]: 20
- Plant response rating, Morningglory [3, 12]: 40
- Plant response rating, Morningglory [3, 13]: 0
- Plant response rating, Morningglory [3, 14]: 0
- Plant response rating, Crabgrass [4, 11]: 0
- Plant response rating, Crabgrass [4, 12]: 0
- Plant response rating, Crabgrass [4, 13]: 0
- Plant response rating, Crabgrass [4, 14]: 0
- Plant response rating, Foxtail, Giant [5, 11]: 0
- Plant response rating, Foxtail, Giant [5, 12]: 0
- Plant response rating, Foxtail, Giant [5, 13]: 0
- Plant response rating, Foxtail, Giant [5, 14]: 0
- Plant response rating, Pigweed [6, 11]: 45
- Plant response rating, Pigweed [6, 12]: 75
- Plant response rating, Pigweed [6, 13]: 0
- Plant response rating, Pigweed [6, 14]: 70

SMILES: CCOC(OCC)c1nc(-c2ccc(I)cc2)nc(N)c1Cl [Compound 138]
- Plant response rating, Barnyardgrass [1, 11]: 0
- Plant response rating, Barnyardgrass [1, 12]: 0
- Plant response rating, Barnyardgrass [1, 13]: 0
- Plant response rating, Barnyardgrass [1, 14]: 0
- Plant response rating, Velvetleaf [2, 11]: 60
- Plant response rating, Velvetleaf [2, 12]: 70
- Plant response rating, Velvetleaf [2, 13]: 0
- Plant response rating, Velvetleaf [2, 14]: 0
- Plant response rating, Morningglory [3, 11]: 0
- Plant response rating, Morningglory [3, 12]: 20
- Plant response rating, Morningglory [3, 13]: 0
- Plant response rating, Morningglory [3, 14]: 0
- Plant response rating, Crabgrass [4, 11]: 0
- Plant response rating, Crabgrass [4, 12]: 0
- Plant response rating, Crabgrass [4, 13]: 0
- Plant response rating, Crabgrass [4, 14]: 0
- Plant response rating, Foxtail, Giant [5, 11]: 0
- Plant response rating, Foxtail, Giant [5, 12]: 0
- Plant response rating, Foxtail, Giant [5, 13]: 0
- Plant response rating, Foxtail, Giant [5, 14]: 0
- Plant response rating, Pigweed [6, 11]: 20
- Plant response rating, Pigweed [6, 12]: 35
- Plant response rating, Pigweed [6, 13]: 0
- Plant response rating, Pigweed [6, 14]: 0
